For this data set the following is noted: Crystal; visual observation.

Structures are written as SMILES. Numbers after ± are expanded uncertainties.

Regarding `C[n+]1ccn(CCOCCOCCn2cc[n+](C)c2)c1.F[P-](F)(F)(F)(F)F.F[P-](F)(F)(F)(F)F`, the Normal melting temperature worked out at 91 ± 2 °C.

Source of the values: the NIST ThermoML archive (doi:10.1021/je5004466).
